{"source": "patent US20260294874A1", "about": "“COMPOSITIONS COMPRISING MODULATORS OF RIBONUCLEOPROTEIN GRANULE FORMATION AND DISSOLUTION AND METHODS OF USE THEREOF” (University of Virginia Patent Foundation, priority 2023, published 2026)", "key": {"[1]": {"tested_on": "stress granules and P-bodies", "details": "literature, cited from earlier work"}, "[2]": {"tested_on": "P-bodies (EDC4 foci) in HEK293T cells", "test": "Immunofluorescence phenotypic screen for P-bodies (α-EDC4) in glucose-deprived HEK293T cells", "assay_type": "cell-based", "method": "(§1) SuTEx compound treatments. Prior to treatments, cells were washed twice with warm phosphate-buffered saline (PBS) and exchanged with serum-free DMEM (supplemented with 1% L-glutamine) for at least 30 minutes at 37° C. with 5% CO2. Compounds were then added as 1000×DMSO stocks (10 μL for 10 cm dishes and 3 μL for 6-well dishes), plates were mixed gently, and cells were incubated for two hours. All compounds were thoroughly vortexed and sonicated for five minutes prior to addition to ensure complete solvation. For microscopy experiments, cultures were seeded at 150,000 cells in 3 mL of DMEM in 6-well THERMO SCIENTIFIC™ BIOLITE™ brand microwell plates (Catalog No. 12556004; Thermo Fisher Scientific Inc., Waltham, Massachusetts. United States of America). For collection, media was aspirated, and cells were washed once with cold PBS before scraping from plates. Cells were centrifuged at 500×g at 4° C. for 5 minutes and supernatant was removed. Cell pellets were resuspended in cold PBS (1 mL) and centrifuged at 1,400×g at 4° C. for 3 minutes. Supernatant was again removed, and pellets were then snap-frozen in liquid nitrogen and stored at −80° C. until needed.\n(§2) Immunofluorescence. Immunofluorescence (IF) of HEK293T cells was performed as previously described in Ciancone et al., 2022. HeLa cells were seeded at 9.0×10^4 in a 24-well plate with 12-mm glass coverslips. The next day, the cells were treated with 25 μM SuTEx probe for 2 hours in DMEM medium without FBS. The cells were then treated with 75 μM NaAsO2 for 30 minutes and fixed with 3% paraformaldehyde in PBS for 15 minutes at room temperature (RT) and washed with PBS twice. The fixed cells were permeabilized with PBST (0.1% Triton X-100) for 15 minutes at room temperature and blocked with 5% goat serum in PBST for 30 minutes at RT. The cells were incubated with anti-G3BP1 antibody H-10 (Catalog No. sc-365338 at 1:200 dilution; Santa Cruz Biotechnology, Inc., Dallas, Texas, United States of America) for 2 hours at RT and washed with PBST (0.1% Tween-20) for 5 minutes three times. Next, cells were incubated with goat anti-mouse Alexa 594 antibody (Catalog No. 115-585-003 at 1:800 dilution; Jackson ImmunoResearch, West Grove, Pennsylvania, United States of America) for 30 minutes at RT. The cells were washed twice with PBST, stained with Hoechst 33342 (Catalog No. H3570 at […]; Thermo Fischer Scientific) in PBST for 5 minutes, and washed with PBS twice for 5 minutes. The coverslips were mounted in PROLONG™ Gold AntiFade Mountant (Catalog No. P36930, Thermo Fisher Scientific) and imaged using NIS Elements AR software and a Nikon Eclipse Ti microscope equipped with a ×100 objective and CMOS camera. […] A CellProfiler pipeline was developed to quantify the number of stress granules under each condition. Briefly, cells were recognized as blue^+ (nuclei) red^+ (G3BP1) objects, and the red^+ granules that meet the shape and size threshold were identified and counted. Cells on the border of linages were excluded from the analysis for more accurate quantification.\nData Analysis—Microscopy. All slides were blinded for imaging. Leica SP5X images were analyzed using Fiji (ImageJ). Custom macros were written for analysis and can be obtained upon request. To elaborate, images were split into channels based on the different laser wavelengths measured. Image stacks were then combined using ‘Z-Project’ with an average intensity parameter and a threshold was applied to exclude noise based on the negative control (no EDC4 antibody). The ‘Analyze Particles’ function was used with relevant size and circularity constraints (0.85-1.00) to count the number of foci, with total PBs having a diameter of >150 nm, and large PBs>450 nm. The number of foci was normalized to the number of cells (defined by a DAPI stain count) in each linage, and the number of foci per cell was averaged across technical replicates. Every sample had at least two technical replicates and two independent biological replicates. […]"}, "[3]": {"tested_on": "stress granules (G3BP1 foci) in HeLa cells", "test": "Immunofluorescence phenotypic screen for stress granules (α-G3BP1) in stressed HeLa cells", "assay_type": "cell-based", "details": "25 μM, 2 h", "method": "as §1, §2\nWe used immunofluorescence (IF) detection for phenotypic screening of SuTEx compound activity on stress-induced PB and SG levels in cells (FIG. 1B). PBs were induced through glucose deprivation of HEK293T cells and detected by immunofluorescence with anti-enhancer of mRNA-decapping protein 4 (EDC4) as previously described (Kedersha & Anderson, 2007; Ciancone et al., 2022) (~4 vs 2 PBs/cell in −glucose and +glucose conditions, respectively; FIG. 8). EDC4 is an established PB marker for mammalian cells and is important for PB formation (Kedersha & Anderson, 2007; Luo et al., 2018). SGs were induced in HeLa cells by [COMPOUND LEFT OUT] treatments and detected by fluorescent staining with anti-Ras GTPase-activating protein-binding protein 1 (G3BP1) antibody (75 μM [COMPOUND LEFT OUT], 30 min; FIG. 9). G3BP1 foci have been used in previous IF studies to identify SGs in cells (Kedersha & Anderson, 2007). […]"}, "eIF4A": {"tested_on": "eIF4A", "details": "literature; cited from earlier work"}, "[4]": {"details": "glucose-deprived HEK293T cells, 25 μM, 2 h"}}, "note": "Where two headings read alike, the source gives them in different places.", "data": [{"smiles": "O=c1[nH]cc(F)c(=O)[nH]1", "note": "[5-fluorouracil]", "values": [{"measurement": "effect on RNP granules (in words)", "setting": "[1]", "value": "formation of pro-survival SGs in solid tumors"}]}, {"smiles": "O=S(=O)(c1cccnc1)n1cc(-c2ccccc2F)nn1", "note": "[AMC-001, 3-((4-(2-Fluorophenyl)-1H-1,2,3-triazol-1-yl)sulfonyl)pyridine]", "values": [{"measurement": "fold induction at 25 µM", "setting": "[2]; Homo sapiens, HEK-293T, glucose-deprived HEK293T cells, pretreatment, 25 μM, 2 h, read-out: increase in PBs/cells", "value": "> 2"}, {"measurement": "effect on PBs (in words)", "setting": "[2]; [4]", "value": "statistically significant increase in PBs per glucose-deprived cell"}, {"measurement": "increase in PBs", "setting": "[2]; glucose-deprived cells, pretreatment", "value": "> 200", "unit": "%"}, {"measurement": "effect on SGs (in words)", "setting": "[3]", "value": "negligible effects on the number of SGs per cell"}]}, {"smiles": "O=S(=O)(c1ccc(F)cc1)n1cnc(-c2cccnc2)n1", "note": "[JWB180, 3-(1-((4-Fluorophenyl)sulfonyl)-1H-1,2,4-triazol-3-yl)pyridine]", "values": [{"measurement": "effect on PBs (in words)", "setting": "[2]; [4]", "value": "negligible effects"}, {"measurement": "effect on SGs (in words)", "setting": "[3]", "value": "negligible effects"}]}, {"smiles": "CC(C)C[C@H](NC(=O)[C@H](Cc1ccccc1)NC(=O)c1cnccn1)B(O)O", "note": "[bortezomib]", "values": [{"measurement": "effect on RNP granules (in words)", "setting": "[1]", "value": "formation of pro-survival SGs in solid tumors"}]}, {"smiles": "C[C@@H]1C[C@@H]([C@H](O)CC2CC(=O)NC(=O)C2)C(=O)[C@@H](C)C1", "note": "[cycloheximide]", "values": [{"measurement": "toxicity (in words)", "setting": "[1]", "value": "significant toxicity"}]}, {"smiles": "CC[C@H]1CN2CCc3cc(OC)c(OC)cc3[C@@H]2C[C@@H]1C[C@H]1NCCc2cc(OC)c(OC)cc21", "note": "[emetine]", "values": [{"measurement": "effect on RNP granules (in words)", "setting": "[1]", "value": "disassemble SGs and stress-induced PBs"}, {"measurement": "toxicity (in words)", "setting": "[1]", "value": "significant toxicity"}, {"measurement": "effect on RNP granules (in words)", "setting": "[1]; listed as Emetine", "value": "inhibit and even dissociate PBs"}, {"measurement": "effect on PB formation (in words)", "setting": "[2]; emetine 50 nM, 2 h, vs vehicle (water), p<0.001", "value": "inhibited PB formation"}]}, {"smiles": "C[C@H]1C[C@@]2(O[C@H]3C[C@H]4[C@@H]5CC[C@H]6C[C@H](O)CC[C@]6(C)[C@H]5[C@@H](O)C[C@]4(C)[C@H]3[C@@]2(C)O)OC1(C)C", "note": "[hippuristanol]", "values": [{"measurement": "inhibition of eIF4A (in words)", "setting": "eIF4A", "value": "inhibit eIF4A"}, {"measurement": "effect on RNP granules (in words)", "setting": "[1]", "value": "induce SGs in an eIF2a-independent manner"}]}, {"smiles": "CC(/C=C/C(C)=C/[C@@H]1Cc2nc(cs2)[C@@H](C)C[C@@H](N)CC(=O)O[C@@H](C)C/C(C)=C/C=C\\C(=O)O1)=C\\CN(C)C", "note": "[pateamine A]", "values": [{"measurement": "inhibition of eIF4A (in words)", "setting": "eIF4A", "value": "inhibit eIF4A"}, {"measurement": "effect on RNP granules (in words)", "setting": "[1]", "value": "induce SGs in an eIF2a-independent manner"}]}, {"smiles": "COc1ccc([C@@]23Oc4cc(OC)cc(OC)c4[C@]2(O)[C@H](O)[C@H](C(=O)N(C)C)[C@H]3c2ccccc2)cc1", "note": "[rocaglamide A]", "values": [{"measurement": "inhibition of eIF4A (in words)", "setting": "eIF4A", "value": "inhibit eIF4A"}]}, {"smiles": "COC(=O)[C@H]1[C@@H](O)[C@@]2(O)c3c(OC)cc(O[C@@H]4O[C@@H]([C@H](O)CO)CO[C@H]4OC)cc3O[C@@]2(c2ccc(OC)cc2)[C@@H]1c1ccccc1", "note": "[silvestrol]", "values": [{"measurement": "inhibition of eIF4A (in words)", "setting": "eIF4A", "value": "inhibit eIF4A"}]}, {"smiles": "CC[C@]1(O)C[C@@H]2CN(CCc3c([nH]c4ccccc34)[C@@](C(=O)OC)(c3cc4c(cc3OC)N(C)[C@H]3[C@@](O)(C(=O)OC)[C@H](OC(C)=O)[C@]5(CC)C=CCN6CC[C@]43[C@@H]65)C2)C1", "note": "[vinblastine]", "values": [{"measurement": "effect on RNP granules (in words)", "setting": "[1]", "value": "form PBs"}]}]}
